{
  "source": "patent US20130078304A1",
  "about": "“CONTROLLED RELEASE FORMULATION FOR TREATING SLEEP DISORDERS” (TAIWAN BIOTECH CO., LTD., priority 2011, published 2013)",
  "origin": "cited, not measured here",
  "key": {"[1]": {"molecular_target": "T1, benzodiazepine (BZ1) receptors (Homo sapiens, UniProt P14867+P18507)", "T1 sequence (P14867 28-456)": "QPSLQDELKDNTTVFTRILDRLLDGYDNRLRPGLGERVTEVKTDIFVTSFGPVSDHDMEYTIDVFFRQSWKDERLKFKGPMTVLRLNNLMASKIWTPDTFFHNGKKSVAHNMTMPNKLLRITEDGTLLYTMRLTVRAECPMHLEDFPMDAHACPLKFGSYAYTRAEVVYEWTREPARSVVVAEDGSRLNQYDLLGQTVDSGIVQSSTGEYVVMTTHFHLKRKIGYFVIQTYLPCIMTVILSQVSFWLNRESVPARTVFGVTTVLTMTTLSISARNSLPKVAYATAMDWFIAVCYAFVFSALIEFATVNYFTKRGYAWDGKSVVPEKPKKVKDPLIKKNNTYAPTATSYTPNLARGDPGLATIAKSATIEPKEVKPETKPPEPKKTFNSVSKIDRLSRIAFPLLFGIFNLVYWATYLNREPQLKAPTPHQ", "T1 sequence (P18507 40-467 limits assumed)": "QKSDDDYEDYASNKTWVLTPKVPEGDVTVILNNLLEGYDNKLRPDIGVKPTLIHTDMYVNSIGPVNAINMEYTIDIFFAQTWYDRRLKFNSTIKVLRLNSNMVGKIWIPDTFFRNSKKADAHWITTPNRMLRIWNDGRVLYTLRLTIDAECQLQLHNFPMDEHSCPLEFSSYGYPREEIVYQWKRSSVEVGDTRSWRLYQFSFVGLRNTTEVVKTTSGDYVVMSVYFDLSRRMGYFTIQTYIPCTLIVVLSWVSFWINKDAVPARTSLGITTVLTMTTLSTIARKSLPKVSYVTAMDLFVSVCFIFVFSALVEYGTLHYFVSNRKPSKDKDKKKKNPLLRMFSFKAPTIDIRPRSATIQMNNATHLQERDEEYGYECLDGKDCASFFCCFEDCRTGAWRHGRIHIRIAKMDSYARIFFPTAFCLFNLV", "T1 sequence (P47870 25-512 partner limits assumed)": "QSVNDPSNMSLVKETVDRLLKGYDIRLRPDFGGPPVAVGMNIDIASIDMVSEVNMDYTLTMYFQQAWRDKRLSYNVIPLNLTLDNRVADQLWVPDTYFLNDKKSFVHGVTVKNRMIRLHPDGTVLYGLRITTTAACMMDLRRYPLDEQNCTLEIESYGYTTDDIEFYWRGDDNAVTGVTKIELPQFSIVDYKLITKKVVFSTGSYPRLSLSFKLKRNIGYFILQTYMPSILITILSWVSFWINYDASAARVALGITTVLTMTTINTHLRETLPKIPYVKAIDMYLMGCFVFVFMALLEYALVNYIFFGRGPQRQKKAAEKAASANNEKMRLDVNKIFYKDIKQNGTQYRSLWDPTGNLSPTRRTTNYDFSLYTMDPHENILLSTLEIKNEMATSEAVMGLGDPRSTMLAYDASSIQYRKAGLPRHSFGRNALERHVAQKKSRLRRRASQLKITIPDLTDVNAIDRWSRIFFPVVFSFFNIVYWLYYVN"}},
  "data": [
    {"compound": "CCN(C(C)=O)c1cccc(-c2ccnc3c(C#N)cnn23)c1", "note": "[Zaleplon, N-[3-(3-cyanopyrazolo-[1,5-a]-pyrimidin-7-yl)-phenyl]-N-ethyl acetamide]", "values": [
      {"measurement": "binding to the BZ1 receptor", "setting": "[1]", "value": "more weakly bound to the receptor than is Zolpidem"},
      {"measurement": "solubility in aqueous media", "value": "poorly soluble"}
    ]}
  ]
}
